Assay results: patent US8389551B2, “Optical enantiomers of phenyramidol and process for chiral synthesis” (Fermenta Biotech (UK) Limited, priority 2006, dated 2013)
Marks after values point to notes of the source that are not given here.

Legend:
[1] = system: swiss albino mice; assay: Skeletal muscle relaxant activity, Rota rod, second experiment (racemic, S isomer, R isomer); type: in vivo; settings: confirmed by a Rota-rod method
Experimental: The evaluation of skeletal muscle relaxant activity of the formulations containing phenyramidol racemic, dextro and laevo isomers of oxalate salts in swiss albino mice were carried out using Rota rod apparatus. Each animal was trained only once per day for 5 days. […] Mouse was placed on rota rod only when it achieved the speed of 25 rpm. The ‘fall off time’ in seconds was noted down when the mouse falls from rotating rod. Endurance time was measured up to 120 seconds. The skeletal muscle relaxant activity was assessed using 0 hr, 1 hr, 2 hrs, 4 hrs and 6 hrs time points after the dose administration. A total of 100 mice were selected and randomly distributed into ten main groups with 10 animals per group.
Two efficacy variables were assessed during the experiment: 1. Percent animal falling from the rod was noted; 2. Endurance Time (ET): The time taken for a mouse to fall from the rod was taken as endurance time. The endurance time was taken up to 120 sec and treatment group ET was compared to normal control. These efficacy variables were assessed at five time points 0 hr, 1 hr, 2 hr, 4 hr, and 6 hr for each and every animal.
In another experiment, the studies have been extended to confirm the isomer which is having more skeletal muscle relaxant activity. Control group (R1) receiving only vehicle (water for injection) served as a placebo in the study. […]

[2] = system: swiss albino mice; assay: Analgesic activity, acetic acid induced writhing method; type: in vivo
Experimental: The objective of the study was to evaluate the analgesic activity of the tested formulations of the compounds of the present invention. The test was conducted in Swiss albino mice using acetic acid induced writhing method. A total of 78 pre-screened mice (showing writhing response within 10 minutes*) were divided into 6 groups of 13 animals (6 males+7 females) each. The animals showing no writhing response within 10 mins were excluded. Diclofenac and pentazocine were used as positive controls. The formulations were given orally to the different groups of animals and the number of writhes counted for a period of 15 minutes, after the onset of writhes. If the onset of writhes occurred 30 after 10 minutes the number of writhes was recorded as V. The time of onset of writhes was recorded for each animal.
The control group received 1% gum acacia. The Groups 2, 3, and 4 received the formulations viz: Phen 2; Phen 3 and Phen 4 respectively. Diclofenac and pentazocine were used as positive control and given to groups 5 and 6 respectively. Diclofenac, a potent analgesic & anti-inflammatory agent; and 5 pentazocine an opoid analgesic were selected for comparative evaluation of test formulations. Both these drugs were administered to different groups of animals at the dose of 2 mg/kg. The group 1 (Phen 1) served as—Ve Control group in the study. Phen 5 (Diclofenac—2 mg/kg) and Positive Control: Phen 6 (Pentazocine 2 mg/kg) served as positive controls.
Human daily dose of 2400 mg (800 mg×3 times) was extrapolated to mice for Phen3 and human daily dose of 1200 mg (400 mg×3 times) was extrapolated to mice for Phen2 and Phen 4. The numbers of writhes observed are given below in Table 4 for each formulation.
Further, the evaluation of analgesic activity was carried out using variable dosage forms with different groups. A total of 100 animals (50 males+50 females) were selected randomly and distributed into ten main groups with 10 animals per group (5 M+5 F). Human daily dose of 2400 mg (800 mg×3 times) was extrapolated to mice for Phen 3 (Phenyramidol Racemic (Hydrochloride) and human daily dose of 1200 mg (400 mg×3 times), 1800 mg (400 mg×4.5 times), 2000 mg (400 mg×5 times) & 2400 mg (400 mg×6 times) was extrapolated to mice for Phen2 and Phen4 groups.
The control group 1 received 1% gum acacia and served as negative control group. Groups 2, 3, 4 & 5 received the formulation Phen2. Groups 6, 7, 8 & 9 received the formulation Phen 4 (Isomer 2) & Group 10 received the formulation Phen 3 (Racemic).
Further, one more experiment was done with phenyramidol hydrochloride to evaluate the analgesic activity at lesser dosage levels using acetic acid induced method. A total of 50 animals (25 males+25 females) were selected and randomly distributed into five main groups with 10 animals per group (5 M+5 F). 5 Human daily dose of 600 mg (400×1.5 times) & 1200 mg (800 mg×1.5 times) was extrapolated to mice for Phen 3 (Racemic) and human daily dose of 600 mg (400 mg×1.5 times) was extrapolated to mice for (−) Phenyramidol Hydrochloride & (+) Phenyramidol Hydrochloride and the results are discussed in Table 6.

## Cl.O[C@H](CNc1ccccn1)c1ccccc1 [(+) Phenyramidol Hydrochloride, (S)-Phenyramidol Hydrochloride Salt]
[1]
  skeletal muscle relaxant activity (summary statement): enhanced skeletal muscle relaxant activity
[2]; Table 6, dose 600 mg (human daily dose extrapolated to mice), mean ± SD, n = 10
  Average no. of writhes: 5.00 ± 4.64*
[2]; experiment of Table 6, lesser dosage levels
  analgesic activity by decrease in the number of writhes induced by acetic acid: significant analgesic activity
